Peptide text beside a SMILES is read from it.
What was measured:
[1] = test system: HPVS PsV; conditions: read-out: IC50, inhibition of uptake of HPVS PsV; PsV 1:6000 dilution, 293TT cells
Protocol: Pseudovirus (PsV) of HPVS was prepared using method described by Buck et al, (Journal of Virology, January 2004; 751-757) and used as a model HPV in this study. The PsV stocks were prepared by co-transfecting human 293TT cells with HPVS viral plasmid p5Shell containing codon-modified papillomavirus capsid genes for L1 and L2 proteins, and pcLucF reporter plasmid containing the luciferase gene for detecting viral infection. The cell lysates containing the capsidized virus was used as the PsV stock. Optimal PsV dilution factor was determined based on the luciferase activity in 293TT cells infected with serially diluted HPVS PsV.
Data were collected on a Molecular Devices Flexstation 3 Microplate Reader using Softmax Pro v5.4.4. Data analysis was performed on Prism software using four parameter logistic model. […] Furin Inhibitor I was used as a positive control for HPVS PsV inhibition since it blocks the viral entry into host cells.
Two runs were performed for each dilution level.

[2] = test system: TLR3/RIG-1/Mda5; assay: polyI:C-induced cytokine responses in PBMC cultures with peptide pre-treatment; type: cell-based, human; conditions: 5 or 25 μg/mL peptide, 30 min pre-treatment, 24 hrs
Protocol: (§1) Primary cell cultures were prepared in RPMI including 5% autologous plasma. Isolated PBMC cells were cultured in 96-well plates at a density of 0.5×10^6cells/well at 37° C., under humidified 5% CO2.
(§2) IL-1β, TNFα, IL-6 and IL-8 were measured simultaneously with a fixed electrochemoluminescence platform based on the sandwich ELISA principle of capture and detection antibodies, produced by MESO SCALE DISCOVERY (MSD, MESO SCALE QUICKPLEX SQ120). The applied assay was the V-PLEX PLUS pro-inflammatory cytokine panel II, including IL-1β, TNFα, IL-6 and IL-8. This assay includes manufacturer-provided control samples with indicated nominal values for comparison. These lyophilized controls, i.e. freeze-dried controls for IL-1β, TNFα, IL-6, IL-8, were prepared freshly at the time of use. QC samples were prepared from the calibrator at 3 different concentrations along the standard curve as multiple aliquots from a single batch and maintained at −20° C. Low, medium and high concentration controls were included in every multiplex assay run to control intra- and inter-assay variation. V-PLEX panels are specific for the detection of human chemokines and cytokines, and combinations have been validated by the manufacturer, to ensure no cross-reactivity.
(§3) IFNα was quantified by a sandwich ELISA based on specific capture and detection antibodies for various matrices (MABTECH), according to the manufacturer's instructions. QC samples were prepared from the calibrator at 3 different concentrations along the standard curve as multiple aliquots from a single batch and maintained at −20° C.
as §3, with “IFNβ” for “IFNα”, “(PBL ASSAY SCIENCE),” for “(MABTECH),”, “C. freezer.” for “C.”
(§4) Briefly, PBMC primary cultures were prepared from 4 healthy donors (2 males, 2 females) as described above. […] The cultures were prepared in duplicate and the readouts for pan-IFNα and IFNβ (ELISA) were measured once. Five-point concentration-response curves were constructed for the various treatment conditions in the PBMC cultures, freshly isolated from 4 subjects.

[3] = test system: TLR7; assay: imiquimod-induced cytokine responses in PBMC cultures with peptide pre-treatment; type: cell-based, human
Protocol: as §1, §2, §3
as §3, with “IFNβ” for “IFNα”, “(PBL ASSAY SCIENCE),” for “(MABTECH),”, “C. freezer.” for “C.”
as §4

[4] = test system: HPV6 and HPV11; assay: HPV viral load (qPCR) in swabs of target wart; type: in vivo
Protocol: (§5) The treatment period was from day 0 till day 84. During the treatment period subjects visited the clinical unit on days 0, 14, 28, 56 and 84. A fixed dose of omiganan or placebo was applied once daily. Two follow up visits were scheduled on days 126 and 168. During study execution, vital signs were measured on days 0, 14, 28, 56 and 84. Pharmacodynamic assessments were performed on day 0 (pre-dose), 14, 28, 56 and 84, respectively. Punch biopsies were performed at the screening and on days 56 and 168. Subjects were dosed 84 consecutive days with approximately 24 hours between each treatment.
HPV viral load in swabs. Swabs were taken from the target wart (or site where target wart was) at every study visit. A quantitative PCR (qPCR) of the swabs was performed for HPV6 and HPV11 to determine the viral load of the specific HPV. Swab samples were collected at day 0, 14, 28, 56, 84 (EOT), […] and 168 (EOS). In FIGS. 22A and 22B, the qPCR was expressed as copies/μL and natural log transformed. In FIGS. 23A and 23B, the qPCR was expressed as copies/μL, natural log transformed and also corrected for the amount of DNA in the sample.

[5] = test system: IL-1β, IL-8; assay: Biomarkers (qPCR) in wart biopsies; type: in vivo, human; conditions: during the study period
Protocol: as §5
Biomarkers in biopsy. Biopsies were taken from biopsy wart 1 at screening, biopsy wart 2 at EOT and target wart at EOS. Biopsies were only taken when the warts were still visible.

[6] = test system: TLR7; assay: Ongoing inflammation in PBMC cultures: imiquimod 3 hrs followed by omiganan 21 hrs; type: cell-based, human
Protocol: as §1, §2
Briefly, PBMC primary cultures were prepared from 4 donors. […] The readouts for the following cytokine and chemokine release were measured: IL-1β, IL-2, IL-4, IL-6, IL-8 HA, IL-8, IL-12p70, IL-13, IFN-γ, and TNF-α were measured. The cultures were prepared in duplicate.

[7] = test system: TC-1 tumor; assay: Tumor outgrowth and flow cytometry after intratumoral injections in TC-1 mice; type: in vivo
Protocol: Tumor growth was measured at days 9, 10, 12, 14, and 16.
Tumor growth was measured at day 9 (one day before injection), 10, 12, 14 and day 16 (at sacrifice).

[8] = test system: TC-1 tumor; assay: Tumor outgrowth in TC-1 mice in presence or absence of anti-neutrophil antibody aLy6G; type: in vivo
Protocol: 10, 12, and 14. Tumor growth was measured at days 11, 13, 15, 17, 20, and 22.

[9] = 5 or 25 μg/mL peptide, 30 min pre-treatment, 24 hrs
[10] = right-shift of imiquimod concentration response curves
[11] = omiganan 25, 12.5, 6.25 μg/mL added after 3 hour imiquimod
[12] = omiganan added after 3 hour imiquimod, effect less obvious

Q: For `CC[C@H](C)[C@H](N)C(=O)N[C@@H](CC(C)C)C(=O)N[C@@H](CCCNC(=N)N)C(=O)N[C@@H](Cc1c[nH]c2ccccc12)C(=O)N1CCC[C@H]1C(=O)N[C@@H](Cc1c[nH]c2ccccc12)C(=O)N[C@@H](Cc1c[nH]c2ccccc12)C(=O)N1CCC[C@H]1C(=O)N[C@@H](Cc1c[nH]c2ccccc12)C(=O)N[C@@H](CCCNC(=N)N)C(=O)N[C@@H](CCCNC(=N)N)C(=O)N[C@@H](CCCCN)C(N)=O` [omiganan, I L R W P W W P W R R K] (H-ILRWPWWPWRRK-NH2), which IC50 [1] is on record?
A: 23.5 to 29.1 µM

Q: And the “IL-6 responses to polyI:C (TLR3/RIG-1/Mda5)” value [2]?
A: did not significantly affect

Q: And the “TNFα responses to polyI:C (TLR3/RIG-1/Mda5)” value [2]?
A: did not significantly affect

Q: What about the “polyI:C-driven IL-1β release” value [2] of the same compound?
A: did not significantly affect

Q: And the “spontaneous and polyI:C-driven IL-8 release” value [2]?
A: strongly inhibited

Q: And the “interferon responses induced by polyI:C stimulation” value ([2]; PBMC of 4 donors)?
A: enhanced

Q: What about the “IL-6 responses to imiquimod (TLR7)” value [3, 9] of the same compound?
A: inhibited

Q: And the “TNFα responses to imiquimod (TLR7)” value [3, 9]?
A: inhibited

Q: And the “interferon responses in the presence of imiquimod” value ([3]; 5 or 25 μg/mL peptide, 30 min pre-treatment, 24 hrs, PBMC of 4 donors)?
A: induced strong interferon responses

Q: What about the “IL-1(3 responses to imiquimod (TLR7))” value [3, 10] of the same compound?
A: inhibited

Q: And the “IL-8 responses to imiquimod (TLR7)” value [3, 10]?
A: inhibited

Q: What about the “viral load of HPV6 in swabs” value ([4]; during omiganan treatment) of the same compound?
A: strong trend toward reduction

Q: And the “HPV6 and HPV11 viral load compared to placebo” value ([4]; swabs, qPCR, at EOT, p=0.0201)?
A: statistical significant decrease

Q: And the “amount of IL-1β in biopsies” value [5]?
A: increased

Q: And the “amount of IL-8 in biopsies” value [5]?
A: increased

Q: What about the IL-1β response [6, 11] of the same compound?
A: did not significantly modify

Q: What about the IL-8 response [6, 11] of the same compound?
A: significantly enhanced

Q: What about the IL-6 response [6, 12] of the same compound?
A: enhanced

Q: And the TNF-α response [6, 12]?
A: enhanced

Q: What about the “tumor outgrowth compared to PBS-treated mice” value ([7]; 30 nmol intratumoral on days 10, 12, 14) of the same compound?
A: reduction in tumor outgrowth

Q: And the “CD11c expression of Ly6C-low macrophages in TC-1 tumors (macrophage phenotype)” value ([7]; flow cytometry after three intratumoral injections)?
A: lower CD11c expression

Q: And the “tumor outgrowth compared to PBS-treated mice” value ([8]; intratumoral on days 9, 11, 14, 16, 18, without aLy6G)?
A: reduction in tumor outgrowth

Q: What about the “reduction in tumor outgrowth” value ([8]; omiganan treated group also treated with aLy6G) of the same compound?
A: not observed
